Values of other authors as cited in patent publication US20200000750A1, “Composition for Treating Acute and Chronic Pain” (priority 2018, published 2020).

Experiments:
[1] = tested on: humans; settings: with the doses mentioned
[2] = tested on: granulocytopoiesis; settings: animals and humans; compared with colchicine
[3] = tested on: birds
[4] = tested on: spermatogenesis; settings: in vivo
[5] = tested on: mitosis, spindle formation; settings: for antimitotic effect (mitotic or spindle poison): literature; for antagonism of colchicine: literature (Benitez et al. 1954)
[6] = tested on: acute attacks of gout; settings: literature; colchiceine at 5 to 8 mg orally
[7] = literature

Compound: CN[C@H]1CCc2cc(OC)c(OC)c(OC)c2-c2ccc(OC)c(=O)cc21 [Desacetylmethylcolchicine]
- alopecia [1]: temporary total alopecia
- effect on granulocytopoiesis [2]: very depressing effect on granulocytopoiesis, much greater than colchicine
- loss of feathers [3]: loss of feathers
- effect on spermatogenesis [4]: Impairment of spermatogenesis

Compound: O=c1cccccc1O [tropolone]
- antimitotic effect (mitotic or spindle poison) [5]: not a spindle poison but rather favors the formation of the spindle
- antagonism of colchicine [5]: potent antagonist of colchicine

Compound: COc1c(O[C@@H]2O[C@H](CO)[C@@H](O)[C@H](O)[C@H]2O)cc2c(c1OC)-c1ccc(OC)c(=O)cc1[C@@H](NC(C)=O)CC2 [colchicoside]
- anti-gout effect in acute attacks of gout [6]: equivocal results

Compound: COc1cc2c(c(OC)c1OC)-c1ccc(=O)c(O)cc1[C@@H](NC(C)=O)CC2 [colchiceine]
- diarrheal effect [7]: very weak
- anti-gout effect in acute attacks of gout [6]: no anti-gout effects
- antimitotic effect (mitotic or spindle poison) [5]: very weak antimitotic

Compound: O=C(CCc1ccc(O)cc1)c1c(O)cc(O)cc1O[C@@H]1O[C@H](CO)[C@@H](O)[C@H](O)[C@H]1O [Phlorizine]
- increase of the antimitotic effect of colchicine (synergist) ([5]; literature (H. R. Littre, et al. 1951)): eight times

Compound: COc1cc2c(c(OC)c1OC)-c1ccc(=O)c(OC)cc1[C@@H](NC(C)=O)CC2 [Iso-colchicine]
- toxicity [7]: relatively nontoxic
- anti-gout effect in acute attacks of gout [6]: little or no anti-gout effects
- antimitotic effect (mitotic or spindle poison) [5]: relatively ineffective as mitotic poisons

Compound: COc1cc2c(c(OC)c1OC)-c1ccc(OC)c(=O)cc1[C@@H](NC(C)=O)CC2 [Colchicine, colchicine]
- anti-gout effect in acute attacks of gout [6]: dramatic relief of acute attacks of gout

Compound: O[C@H]1[C@H](O)[C@@H](O)[C@H](O)[C@@H](O)[C@H]1O [mesoinosital]
- antagonism of colchicine [5]: potent antagonist of colchicine
